Among the data in the supplement of paper PMC10307832 are relative viability values, retold here.

Holding throughout (experiment): relative viability (nuclei count vs DMSO), 5 days (fraction); higher = more cells survive
Compound in test [1]: C1/C(=C\C2=CC=CS2)/C(=O)/C(=C/C3=CC=CS3)/C1 + CCNC(=O)c1noc(-c2cc(C(C)C)c(O)cc2O)c1-c1ccc(CN2CCOCC2)cc1 [Luminespib] (partner 0.01 µM)
In short, it runs like this:
(§1)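 Lung cancer cell lines in 1536-well plates got either a single drug or a fixed anchor-drug dose together with five library-drug doses (not always all listed) in √10 steps, by pin tool, on the day after seeding. Nuclei were counted after 5 days, and relative viability is the treated-to-vehicle ratio of nuclei counts. Values are medians of duplicate plates.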

Compound in the test “Lestaurtinib + Dasatinib”: C[C@]12O[C@H](C[C@]1(O)CO)n1c3ccccc3c3c4c(c5c6ccccc6n2c5c31)CNC4=O [Lestaurtinib] + Cc1nc(Nc2ncc(C(=O)Nc3c(C)cccc3Cl)s2)cc(N2CCN(CCO)CC2)n1 [Dasatinib] (partner 0.075 µM)
In short, it runs like this: as §1

Compound in test [2]: C1/C(=C\C2=CC=CS2)/C(=O)/C(=C/C3=CC=CS3)/C1 + CC(C)C[C@H](NC(=O)[C@H](Cc1ccccc1)NC(=O)c1cnccn1)B(O)O [Bortezomib] (partner 0.002 µM)
In short, it runs like this: as §1

Compound in test [3]: C[C@]12O[C@H](C[C@]1(O)CO)n1c3ccccc3c3c4c(c5c6ccccc6n2c5c31)CNC4=O [Lestaurtinib] + C[C@]1(O)C[C@@H](c2nc(-c3ccc4ccc(-c5ccccc5)nc4c3)c3c(N)nccn32)C1 [Linsitinib] (partner 1 µM)
In short, it runs like this: as §1

Turning to UMC-11, the relative viability amounted to 1.02 in test [1] (first compound 0.2 µM); 0.978 in test [1] (first compound 0.6325 µM); 1.05 in test [1] (first compound 20 µM); 0.543 in the test with Lestaurtinib + Dasatinib (first compound 0.005 µM); 0.501 with Lestaurtinib + Dasatinib (first compound 0.01581 µM); 0.247 in the test with Lestaurtinib + Dasatinib (first compound 0.05 µM). Further, the relative viability with Lestaurtinib + Dasatinib (first compound 0.1581 µM) was determined as 0.231; with Lestaurtinib + Dasatinib (first compound 0.5 µM), 0.146; in test [2] (first compound 0.2 µM) it was 0.717; in test [2] (first compound 0.6325 µM) it was 0.579; in test [2] (first compound 2 µM), 0.639; in test [2] (first compound 20 µM), 0.597. The relative viability is 1.08 in test [3] (first compound 0.005 µM); 1.06 in test [3] (first compound 0.01581 µM); 0.575 in test [3] (first compound 0.05 µM); 0.339 in test [3] (first compound 0.1581 µM); 0.175 in test [3] (first compound 0.5 µM).
